# Data as given in ChEMBL document CHEMBL4152208, “Synthesis and structure-activity relationships of quinolinone and quinoline-based P2X7 receptor antagonists and their anti-sphere formation activities in glioblastoma cells” (Eur J Med Chem, 2018).
# The source made the active and inactive calls. No cut-off for these calls is given here.
# Experiments:
# P2X purinoceptor 3 = biological target: T1, P2X purinoceptor 3 (Homo sapiens, UniProt P56373); test: Antagonist activity at human P2X3 receptor expressed in 1321N1 cells assessed as inhibition of ATP-induced calcium flux measured for 30 secs at 0.4 secs intervals by Flou-4-AM dye based fluorescence assay; format: cell-based; settings: read-out: IC50
# T1 sequence (P56373 whole entry): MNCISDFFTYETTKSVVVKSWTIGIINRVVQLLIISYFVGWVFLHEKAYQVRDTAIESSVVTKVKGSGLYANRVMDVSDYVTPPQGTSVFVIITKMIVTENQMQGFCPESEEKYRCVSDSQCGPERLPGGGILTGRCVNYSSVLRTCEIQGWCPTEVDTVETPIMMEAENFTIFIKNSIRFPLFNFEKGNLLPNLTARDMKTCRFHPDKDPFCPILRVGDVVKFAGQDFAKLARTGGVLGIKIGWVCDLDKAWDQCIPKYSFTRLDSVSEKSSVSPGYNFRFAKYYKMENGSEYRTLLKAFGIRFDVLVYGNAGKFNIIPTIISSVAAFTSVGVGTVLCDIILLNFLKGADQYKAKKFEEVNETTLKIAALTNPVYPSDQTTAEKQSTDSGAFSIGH
# [1] = Effective permeability of the compound at 50 uM after 4 hrs by BBB-PAMPA method; format: ADME; settings: read-out: Peff
# [2] = biological target: T2, P2X purinoceptor 7 (Homo sapiens) (UniProt Q99572); test: Antagonist activity at human P2X7 receptor expressed in HEK293 cells assessed as inhibition of BzATP-induced EtBr uptake at 10 uM after 2 hrs by fluorescence assay relative to control; format: cell-based
# T2 sequence (whole entry): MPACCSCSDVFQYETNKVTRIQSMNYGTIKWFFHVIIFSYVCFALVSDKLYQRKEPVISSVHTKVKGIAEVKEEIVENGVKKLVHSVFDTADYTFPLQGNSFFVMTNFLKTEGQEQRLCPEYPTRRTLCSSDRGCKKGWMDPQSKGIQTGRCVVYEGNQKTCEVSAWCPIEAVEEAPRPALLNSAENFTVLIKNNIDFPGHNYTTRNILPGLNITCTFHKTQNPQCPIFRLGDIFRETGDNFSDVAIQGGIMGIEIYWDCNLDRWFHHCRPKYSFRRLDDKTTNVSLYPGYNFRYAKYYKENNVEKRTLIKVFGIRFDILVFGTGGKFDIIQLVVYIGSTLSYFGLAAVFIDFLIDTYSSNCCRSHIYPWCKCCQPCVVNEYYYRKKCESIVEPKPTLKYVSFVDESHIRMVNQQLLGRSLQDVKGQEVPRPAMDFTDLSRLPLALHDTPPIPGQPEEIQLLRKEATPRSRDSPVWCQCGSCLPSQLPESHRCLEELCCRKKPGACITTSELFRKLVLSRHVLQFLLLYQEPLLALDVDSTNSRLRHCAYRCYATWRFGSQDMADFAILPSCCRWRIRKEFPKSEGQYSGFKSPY
# [3] = biological target: T2, P2X purinoceptor 7 (Homo sapiens); test: Antagonist activity at human P2X7 receptor expressed in HEK293 cells assessed as inhibition of BzATP-induced EtBr uptake at 1 uM after 2 hrs by fluorescence assay relative to control; format: cell-based
# P2X purinoceptor 7 [4] = biological target: T3, P2X purinoceptor 7 (Homo sapiens, UniProt Q99572); test: Antagonist activity at human P2X7 receptor expressed in HEK293 cells assessed as inhibition of BzATP-induced EtBr uptake after 2 hrs by fluorescence assay relative to control; format: cell-based
# T3 sequence (Q99572 whole entry): T2 sequence (whole entry)
# P2X purinoceptor 7 [5] = biological target: T3, P2X purinoceptor 7; test: Antagonist activity at P2X7 in LPS/IFN gamma differentiated human THP-1 cells assessed as inhibition of BzATP-induced IL-1beta release preincubated for 30 mins followed by BzATP stimulation for 30 mins by ELISA; format: cell-based
# Homo sapiens [6] = organism: Homo sapiens; test: Antiproliferative activity against human TS15-88 cells at 50 uM after 24 hrs by MTS assay; format: functional, cell-based
# Homo sapiens [7] = organism: Homo sapiens; test: Antiproliferative activity against human TS15-88 cells at 50 uM after 72 hrs by MTS assay; format: functional, cell-based
# [8] = Antiproliferative activity against human TS15-88 cells after 24 to 72 hrs by MTS assay; format: functional, cell-based
# [9] = Inhibition of neurosphere formation in human TS15-88 cells assessed as decrease in sphere size at 50 uM after 5 days by microscopic analysis relative to control; format: functional; settings: 120 h
# [10] = Cytotoxicity against HEK293 cells expressing human P2X7 receptor assessed as cell survival at 10 uM by MTT assay relative to control; format: cell-based; settings: read-out: Survival
# [11] = Kinetic solubility of the compound in PAMPA buffer at 50 uM by nepheolometry method; format: physicochemical
# [12] = Kinetic solubility of the compound in PAMPA buffer at 25 uM by nepheolometry method; format: physicochemical
# [13] = Kinetic solubility of the compound in PAMPA buffer at 12.5 uM by nepheolometry method; format: physicochemical
# [14] = Metabolic stability in human liver microsomes assessed as parent compound remaining at 1 uM up to 30 mins in presence of NADPH by LC-MS/MS analysis; format: ADME, microsome; settings: read-out: Stability
# [15] = Metabolic stability in rat liver microsomes assessed as parent compound remaining at 1 uM up to 30 mins in presence of NADPH by LC-MS/MS analysis; format: ADME, microsome; settings: read-out: Stability
# [16] = Metabolic stability in mouse liver microsomes assessed as parent compound remaining at 1 uM up to 30 mins in presence of NADPH by LC-MS/MS analysis; format: ADME, microsome; settings: read-out: Stability
# P2X purinoceptor 7 [17] = biological target: T3, P2X purinoceptor 7; test: Antagonist activity at human P2X7 receptor in expressed in HEK293 cells assessed as inhibition of BzATP-induced EtBr uptake; format: cell-based
# [18] = biological target: T2, P2X purinoceptor 7 (Homo sapiens); test: Antagonist activity at P2X7 in LPS/IFN gamma differentiated human THP-1 cells assessed as inhibition of BzATP-induced IL-1beta release at 10 uM preincubated for 30 mins followed by BzATP stimulation for 30 mins by ELISA; format: cell-based
# [19] = biological target: T2, P2X purinoceptor 7 (Homo sapiens); test: Antagonist activity at P2X7 in LPS/IFN gamma differentiated human THP-1 cells assessed as inhibition of BzATP-induced IL-1beta release at 1 uM preincubated for 30 mins followed by BzATP stimulation for 30 mins by ELISA; format: cell-based
Compound,"Papp at 4 h, 50 µM [1]",inhibition [2],inhibition [3],IC50 (P2X purinoceptor 7 [4]),IC50 (P2X purinoceptor 7 [5]),Activity (Homo sapiens [6]),Activity (Homo sapiens [7]),inhibition at 50 µM [9],viability at 10 µM [10],"remaining at 0.5 h, 1 µM [14]",other results
CC(=O)[C@H]1CC[C@H]2[C@@H]3CCC4=CC(=O)CC[C@]4(C)[C@H]3CC[C@]12C [PROGESTERONE],36.6 ×10⁻⁶ cm/s,–,–,–,–,–,–,–,–,–,IC50 (P2X purinoceptor 3): 1600 nM
COC(=O)c1ccc(-c2ccc3c(NC(=O)CC45CC6CC(CC(C6)C4)C5)cccc3n2)cc1,–,95%,90%,7 nM,33 nM,Active,Active,> 50%,97%,–,IC50 [8]: 35600 nM
O=C(CC12CC3CC(CC(C3)C1)C2)Nc1cccc2nc(-c3ccc(CO)cc3)ccc12,17.7 ×10⁻⁶ cm/s,98%,95%,3 nM,12 nM,Active,Active,> 50%,95%,17.9%,"Kinetic_solubility [11]: Soluble; Kinetic_solubility [12]: Soluble; Kinetic_solubility [13]: Soluble; remaining at 0.5 h, 1 µM [15]: 11.2%; remaining at 0.5 h, 1 µM [16]: 17%"
O=C1NC(=O)C(C2CCN(C(=O)c3ccc(Cl)c(C(F)(F)F)c3)CC2)C1Cc1ccc(OS(=O)(=O)c2cccc3cnccc23)cc1 (stereo not given),–,–,–,–,–,–,–,–,–,–,IC50 (P2X purinoceptor 7 [17]): 54 nM
COC(=O)c1cc2c(NC(=O)C34CC5CC(CC(C5)C3)C4)cccc2n(Cc2ccc(OC)cc2)c1=O,–,87%,76%,120 nM,–,–,–,–,–,–,inhibition [18]: 49%; inhibition [19]: inactive
O=C(CC12CC3CC(CC(C3)C1)C2)Nc1cccc2nc(-c3ccc(O)cc3)ccc12,16.4 ×10⁻⁶ cm/s,95%,79%,8 nM,6 nM,Active,Active,> 50%,94%,21.5%,"IC50 [8]: 25600 nM; Kinetic_solubility [11]: Soluble; Kinetic_solubility [12]: Soluble; Kinetic_solubility [13]: Soluble; remaining at 0.5 h, 1 µM [15]: 12.9%; remaining at 0.5 h, 1 µM [16]: 14.5%"
N[C@H]1CCN(Cc2ccc(Cl)c(C(=O)NCC34CC5CC(CC(C5)C3)C4)c2)C1,–,–,–,–,–,–,–,–,–,–,IC50 (P2X purinoceptor 7 [17]): 85 nM
COc1ccc(CCN(C)CCCC(C#N)(c2ccc(OC)c(OC)c2)C(C)C)cc1OC (stereo not given),–,–,–,–,–,–,–,–,–,10.5%,–
